Laboratory results reported in paper doi:10.1101/2024.04.19.590212v1 (biorxiv, 2024).
Read-outs that look alike come from different tables or passages of the source.

Key:
[1] = target: T1, 5-HT2AR (Homo sapiens, UniProt P28223); experiment: cell-based; settings: U2OS, read-out: 5-HT2AR Rmax (beta-arrestin)
[2] = target: T2, 5-HT2CR (Homo sapiens, UniProt P28335); settings: agonist mode; partial agonist
[3] = target: T2, 5-HT2CR; experiment: cell-based
[4] = target: T1, 5-HT2AR; experiment: cell-based; settings: U2OS, read-out: 5-HT2AR Rmax (internalization)
[5] = target: T3, 5-HT1BR (Homo sapiens, UniProt P28222); experiment: cell-based
[6] = target: T3, 5-HT1BR; experiment: cell-based; remark: listed apart in the source
[7] = target: T2, 5-HT2CR; settings: antagonist mode against 5-HT-induced response; incomplete inhibition
[8] = target: T3, 5-HT1BR; experiment: cell-based; settings: CHO-K1, read-out: 5-HT1BR Rmax (cAMP)
[9] = target: T2, 5-HT2CR; experiment: cell-based; remark: listed apart in the source

T2 sequence (P28335 33-458): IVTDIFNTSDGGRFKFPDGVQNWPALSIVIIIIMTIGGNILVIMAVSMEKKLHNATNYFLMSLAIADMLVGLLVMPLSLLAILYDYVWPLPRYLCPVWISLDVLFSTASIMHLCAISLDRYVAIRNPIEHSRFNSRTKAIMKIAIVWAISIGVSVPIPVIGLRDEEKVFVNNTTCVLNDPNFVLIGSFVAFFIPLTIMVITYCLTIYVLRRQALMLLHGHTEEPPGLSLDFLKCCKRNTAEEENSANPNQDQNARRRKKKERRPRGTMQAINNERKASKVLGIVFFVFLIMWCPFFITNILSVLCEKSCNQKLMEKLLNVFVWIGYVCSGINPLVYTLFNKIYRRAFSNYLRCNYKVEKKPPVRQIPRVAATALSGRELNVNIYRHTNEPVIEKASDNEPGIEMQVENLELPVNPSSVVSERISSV
T3 sequence (P28222 whole entry): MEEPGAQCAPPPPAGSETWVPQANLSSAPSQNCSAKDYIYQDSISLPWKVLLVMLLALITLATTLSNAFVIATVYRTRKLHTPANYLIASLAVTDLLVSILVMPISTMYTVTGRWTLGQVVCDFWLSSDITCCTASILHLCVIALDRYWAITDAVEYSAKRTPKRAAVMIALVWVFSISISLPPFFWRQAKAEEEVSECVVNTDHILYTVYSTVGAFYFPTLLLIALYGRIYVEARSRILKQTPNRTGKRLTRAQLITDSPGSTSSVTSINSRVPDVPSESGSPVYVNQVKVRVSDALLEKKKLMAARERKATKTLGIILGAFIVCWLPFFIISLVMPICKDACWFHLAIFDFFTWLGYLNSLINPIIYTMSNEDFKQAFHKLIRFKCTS
T1 sequence (P28223 whole entry): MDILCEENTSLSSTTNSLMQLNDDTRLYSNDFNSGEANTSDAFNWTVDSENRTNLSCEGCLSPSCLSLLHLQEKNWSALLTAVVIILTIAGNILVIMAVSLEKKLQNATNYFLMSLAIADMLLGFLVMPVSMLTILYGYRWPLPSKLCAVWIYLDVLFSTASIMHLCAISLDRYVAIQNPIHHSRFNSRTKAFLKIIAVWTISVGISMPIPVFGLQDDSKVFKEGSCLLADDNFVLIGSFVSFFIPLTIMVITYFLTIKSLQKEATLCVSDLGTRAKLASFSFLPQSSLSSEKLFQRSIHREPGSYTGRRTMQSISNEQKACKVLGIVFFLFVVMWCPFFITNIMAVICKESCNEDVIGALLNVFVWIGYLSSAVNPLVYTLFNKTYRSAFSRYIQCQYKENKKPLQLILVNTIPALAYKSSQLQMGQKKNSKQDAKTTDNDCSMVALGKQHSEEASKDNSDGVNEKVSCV

COc1cc(C(F)(F)F)c(OC)cc1[C@@H]1CCCNC1 [LPH-5, (S)-3-(2,5-dimethoxy-4-(trifluoromethyl)phenyl)piperidine]
Emax [1]: 61 ± 11%
EC50 [2]: 110 [pEC50 6.96 ± 0.07] nM
IC50 [3]: 38 nM
Emax [4]: 94 ± 11%
EC50 [5]: > 30000 nM
EC50 [6]: 870 nM
IC50 [7]: 300 [pIC50 6.52 ± 0.08] nM
Emax [8]: 78%
EC50 [9]: > 30000 nM
